Experimental data reported in article PMC6372683, “Mechanism of the natural product moracin-O derived MO-460 and its targeting protein hnRNPA2B1 on HIF-1α inhibition” (Experimental & Molecular Medicine, 2019).
pKd: −log10 of the molar value. Several values for one entry are separate records, joined by “and”; a condition that tells them apart may be missing. Equal entries are not always repeated. Entries after “also recorded” stand apart in the source; their conditions may differ.

Tests used:
[1] = biological target: T1, HIF-1α protein (Homo sapiens, UniProt Q16665); assay: Affinity capture with Biotin-MO-460 followed by LC/MS; assay type: binding; conditions: two rounds of the affinity capture experiment
T1 construct: endogenous in cells; host or cells: Hep3B (cytosolic and nuclear lysates, CoCl2-treated)
T1 sequence (Q16665 whole entry): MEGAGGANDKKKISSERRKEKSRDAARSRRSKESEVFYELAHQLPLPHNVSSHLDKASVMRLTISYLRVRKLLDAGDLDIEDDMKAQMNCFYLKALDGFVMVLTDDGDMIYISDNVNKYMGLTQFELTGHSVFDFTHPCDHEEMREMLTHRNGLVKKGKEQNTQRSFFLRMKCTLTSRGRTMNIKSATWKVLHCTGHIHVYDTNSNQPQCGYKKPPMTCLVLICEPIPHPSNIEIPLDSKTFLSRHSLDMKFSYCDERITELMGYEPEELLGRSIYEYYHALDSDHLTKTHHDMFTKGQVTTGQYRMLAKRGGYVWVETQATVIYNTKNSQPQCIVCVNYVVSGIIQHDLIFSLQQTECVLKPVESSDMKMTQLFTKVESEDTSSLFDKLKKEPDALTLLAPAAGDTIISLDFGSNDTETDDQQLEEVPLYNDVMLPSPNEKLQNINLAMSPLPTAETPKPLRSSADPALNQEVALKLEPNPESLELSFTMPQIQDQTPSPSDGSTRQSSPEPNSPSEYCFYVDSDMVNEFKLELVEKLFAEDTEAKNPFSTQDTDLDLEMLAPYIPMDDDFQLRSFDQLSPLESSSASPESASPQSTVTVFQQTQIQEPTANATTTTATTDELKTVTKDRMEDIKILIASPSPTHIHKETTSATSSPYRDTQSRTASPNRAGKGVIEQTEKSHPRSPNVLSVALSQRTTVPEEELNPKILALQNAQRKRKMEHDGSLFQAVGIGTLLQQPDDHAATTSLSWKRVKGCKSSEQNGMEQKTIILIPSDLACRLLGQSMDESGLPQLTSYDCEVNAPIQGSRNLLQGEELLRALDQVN
Method: We synthesized biotinylated MO-460 using a recently reported method. Fractionation and enrichment of cytosol and nuclei were performed as described previously. Briefly, Hep3B (Human hepatocyte cancer cell line) was harvested and washed twice with PBS after treatment with 200 μM of CoCl2 for 24 h, and then resuspended in lysis buffer [10 mM HEPES pH 7.9, 10 mM KCl, 0.1 mM EGTA, 0.1 mM EDTA, 0.5 mM PMSF, 0.025% 2-Mercaptoethanol, 1.6% NP-40, and protease inhibitor cocktail]. After cell lysis and homogenization by vortexing for 10 s, the insoluble material was removed by centrifugation. The supernatant was collected as a cytosol-enriched lysate. The pellet was resuspended in nuclear extract buffer [20 mM HEPES pH 7.9, 400 mM NaCl, 1 mM EGTA, 1 mM EDTA, 1 mM DTT, 1 mM PMSF, protease inhibitor cocktail]. The pellet was then vortexed vigorously at 4 °C to separate the insoluble material. After the cytosol-enriched lysate (97.9 μg of protein) and the nuclei-enriched lysate (67.5 μg of protein) were precleared by incubation with NeutrAvidine^TM agarose-resins (Thermo Scientific) that were conjugated with biotin-linker (cytosol fraction: 600 μM, nuclear fraction: 1200 μM) for 12 h at 4 °C, the cleared cell lysate was incubated with NeutrAvidine^TM agarose-resins bound -Biotin-MO-460 (cytosol fraction: 200 μM, nuclear fraction: 400 μM) for 16 h at 4 °C, respectively. […]

[2] = biological target: T2, full-length hnRNPA2B1 (1–353 aa) (Homo sapiens, UniProt P22626); assay: BLItz association-dissociation binding assay, full-length hnRNPA2B1; conditions: 6XHis tagged protein, Con. 5 uM, biotin-MO-460 on streptavidin tip
T2 construct: 1–353 aa; His; made in house; host or cells: bacteria (pET28A vector)
T2 sequence (P22626 whole entry, the tested form may be a part): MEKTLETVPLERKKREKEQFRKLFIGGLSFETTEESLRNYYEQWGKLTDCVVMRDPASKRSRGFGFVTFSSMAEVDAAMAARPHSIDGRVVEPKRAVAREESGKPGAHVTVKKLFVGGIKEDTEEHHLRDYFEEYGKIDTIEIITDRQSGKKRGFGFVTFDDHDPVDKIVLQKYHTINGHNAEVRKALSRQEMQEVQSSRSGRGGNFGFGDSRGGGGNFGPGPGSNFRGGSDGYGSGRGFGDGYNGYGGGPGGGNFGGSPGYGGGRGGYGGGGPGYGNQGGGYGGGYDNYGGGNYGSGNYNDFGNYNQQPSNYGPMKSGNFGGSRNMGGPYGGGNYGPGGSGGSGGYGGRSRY
Method: The binding capacity of hnRNPA2B1 to Biotin-MO-460 was also analyzed using a BLItz™ (Fortebio, Inc., CA, US) instrument with a streptavidin-coated biosensor tip (Pall, USA). The streptavidin-coated tips were pre-wetted for 10 min in an incubation buffer (10 mM HEPES pH 7.4, 1% BSA and 0.05% Tween 20). The streptavidin-coated tips were immobilized with 1 μM Biotin-MO-460 in incubation buffer (10 mM HEPES pH 7.4, 1% BSA and 0.05% Tween 20) for 5 min. […] The concentrations were then incubated with HEPES for another 3 min to desorb the protein. Analysis of the accurate and precise kinetic constants was performed by the BLItz data analysis software (BLItz Pro 1.1).

[3] = test system: hnRNPA2B1 protein and HIF-1α mRNA complex; assay: RNA-immunoprecipitation of hnRNPA2B1 with HIF-1α mRNA; assay type: cell-based, human; conditions: Hep3B cells, mimetic hypoxia, 50 μM, 24 h
Method: Hep3B cells were cultured at 37 °C in a 5% atmospheric concentration of CO2 and 200 μM of CoCl2 in the presence or absence of MO-460 (50 μM) and the cells harvested after 24 h. Total lysates of Hep3B were prepared in nuclear isolation buffer [128 mM sucrose, 40 mM Tris-HCl pH 7.5, 20 mM MgCl2, 4% Triton-X100]. After clarifying by centrifugation at 2500× g for 15 min at 4 °C the nuclear pellet was resuspended in RIP buffer [150 mM KCl, 25 mM Tris-HCl pH 7.5, 5 mM EDTA, 0.5 mM DTT, 0.5% Triton-X100, and protease inhibitor cocktail], and then incubated with 4 μg of either control IgG or the anti-hnRNPA2B1 antibody. After 1.5 h of incubation, protein-G agarose beads (Santa Cruz Biotechnologies, Santa Cruz, CA) were added and then precipitated. RNAs were purified from 90% of the samples. Eluted RNAs were complemented by reverse transcriptase with random primers. cDNAs were used in the subsequent PCR reactions with the indicated primer sets. The resulting PCR products were separated on a 1.5% agarose gel. The other 10% of the samples from which RNA was not collected were separated by SDS-PAGE and then immunoblotted with anti-hnRNPA2B1 antibody.

[4] = test system: HIF-1α mRNA in Hep3B cells; assay: HIF-1α mRNA level by qRT-PCR / RT-PCR; assay type: cell-based, human
Method: Cells were lysed with TRIzol (Invitrogen) and proteins were extracted with chloroform. RNAs were precipitated with isopropanol and washed with 75% ethanol diluted with DEPC-treated water. Purity and concentration of RNA was analyzed using nano drop. The cDNA was synthesized from total RNA in a reaction mixture containing 5 × reaction buffer (250 mM Tris-HCl pH 8.3, 375 mM KCl, 15 mM MgCl2, 50 mM DTT), 50 μg/mL Oligo-dT, 10 mM dNTP, and 50,000 U M-MLV reverse transcriptase (Promega, Madison, WI). Amplified PCR products obtained with β actin-specific primers served as internal controls. The sequences of the primers used for this study are listed in Supplementary Materials and Methods 5 and 6.

binding to HIF-1α protein [1]: did not bind to HIF-1α protein | pKd [2]: 4.94
Structure (SMILES): CC(C)(O)[C@H]1Cc2cc3cc(-c4ccc(O)cc4)oc3cc2O1 [MO-460, (R)-4-[6-(1-Hydroxy-1-methylethyl)-5,6-dihydro-benzo[1,2-b;5,4-b’]difuran-2-yl]-phenol]
interaction between hnRNPA2B1 and HIF-1α mRNA [3]: abolished | reduction in HIF-1α mRNA level ([4]; 50 µM, mimetic hypoxia, qRT-PCR): ~ 10% and < 10% | effect on HIF-1α transcript level ([4]; normoxic condition): no observed effect; also recorded: did not affect HIF-1α transcript levels
